Here are results for one molecule from PMC7749613 (Journal of Cachexia, Sarcopenia and Muscle, 2020).

Data set [1] has as its target T1, MATE1 (Homo sapiens, UniProt Q96FL8).
T1 sequence (Q96FL8 1-570): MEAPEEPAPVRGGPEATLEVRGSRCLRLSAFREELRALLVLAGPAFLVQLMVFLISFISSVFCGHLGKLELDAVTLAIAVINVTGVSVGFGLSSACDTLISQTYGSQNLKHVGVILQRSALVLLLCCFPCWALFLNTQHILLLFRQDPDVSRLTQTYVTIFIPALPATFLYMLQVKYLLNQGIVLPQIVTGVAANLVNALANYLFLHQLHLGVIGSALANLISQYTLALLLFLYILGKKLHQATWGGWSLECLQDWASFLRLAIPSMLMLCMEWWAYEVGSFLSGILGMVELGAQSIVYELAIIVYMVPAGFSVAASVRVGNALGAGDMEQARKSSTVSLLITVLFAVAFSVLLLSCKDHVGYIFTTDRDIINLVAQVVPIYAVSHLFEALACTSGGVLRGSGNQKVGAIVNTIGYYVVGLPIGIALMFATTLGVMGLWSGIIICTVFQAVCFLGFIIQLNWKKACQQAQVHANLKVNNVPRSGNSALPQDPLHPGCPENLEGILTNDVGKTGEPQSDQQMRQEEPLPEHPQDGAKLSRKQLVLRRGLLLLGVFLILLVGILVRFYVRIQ
Format: in vitro ADME. Here is the method:
(§1) However, for these studies, a different incubation buffer was used (145 mM NaCl, 3 mM KCl, 1 mM CaCl2, 0.5 mM MgCl2, 5 mM glucose, and 5 mM HEPES, pH 7.4). ^13 Moreover, intracellular acidification was achieved by preincubating the cells in buffer containing 30 mM ammonium chloride for 20 min at 37°C. […] Radioactivity and protein measurements were performed as described previously.

The target in data set [2] is MATE2‐K (Homo sapiens, UniProt Q86VL8). Format: in vitro ADME. As to the method: as §1
Chain of MATE2‐K (Q86VL8 1-566 isoform Q86VL8-3): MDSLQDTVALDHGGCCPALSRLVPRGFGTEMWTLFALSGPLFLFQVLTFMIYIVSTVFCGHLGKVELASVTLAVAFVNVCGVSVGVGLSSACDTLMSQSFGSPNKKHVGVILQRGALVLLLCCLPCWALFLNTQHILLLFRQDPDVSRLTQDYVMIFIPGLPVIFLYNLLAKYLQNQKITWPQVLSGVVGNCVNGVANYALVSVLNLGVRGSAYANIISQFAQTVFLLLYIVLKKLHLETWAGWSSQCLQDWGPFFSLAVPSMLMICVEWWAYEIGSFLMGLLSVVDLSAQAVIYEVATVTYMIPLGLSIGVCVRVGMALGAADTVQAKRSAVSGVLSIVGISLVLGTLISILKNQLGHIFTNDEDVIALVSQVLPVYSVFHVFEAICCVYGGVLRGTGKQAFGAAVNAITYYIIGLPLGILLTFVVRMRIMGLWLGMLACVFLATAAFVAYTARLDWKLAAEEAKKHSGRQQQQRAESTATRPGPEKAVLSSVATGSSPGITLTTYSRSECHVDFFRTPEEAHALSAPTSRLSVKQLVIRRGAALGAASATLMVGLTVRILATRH
In data set [3] the target is T2, OATP1A2 (Homo sapiens, UniProt P46721).
T2 sequence (P46721 1-670): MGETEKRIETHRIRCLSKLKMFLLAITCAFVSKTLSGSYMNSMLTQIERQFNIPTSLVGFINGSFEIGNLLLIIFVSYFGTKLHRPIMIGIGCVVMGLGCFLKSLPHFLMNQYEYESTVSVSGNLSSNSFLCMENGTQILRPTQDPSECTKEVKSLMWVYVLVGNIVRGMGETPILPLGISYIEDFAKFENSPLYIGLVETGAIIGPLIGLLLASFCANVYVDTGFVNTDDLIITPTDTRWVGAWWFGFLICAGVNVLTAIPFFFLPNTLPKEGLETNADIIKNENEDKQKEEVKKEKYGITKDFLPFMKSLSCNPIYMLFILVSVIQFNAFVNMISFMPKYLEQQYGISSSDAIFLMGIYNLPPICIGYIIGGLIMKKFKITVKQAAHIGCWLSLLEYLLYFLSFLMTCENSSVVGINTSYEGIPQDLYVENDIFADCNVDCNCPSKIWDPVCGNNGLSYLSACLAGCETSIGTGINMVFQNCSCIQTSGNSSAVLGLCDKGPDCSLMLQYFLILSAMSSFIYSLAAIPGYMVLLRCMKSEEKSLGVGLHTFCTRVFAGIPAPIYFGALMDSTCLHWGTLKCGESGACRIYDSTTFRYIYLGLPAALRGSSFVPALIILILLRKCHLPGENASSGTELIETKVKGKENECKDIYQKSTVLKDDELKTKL
In words: Inhibition of prototypical substrate (E3S) uptake by TCMCB07 in HEK293/OATP1A2 cells. Format: in vitro ADME. On the set-up: host or cells: HEK293.
Protocol: (§2) Cells were then washed three times × 1.0 mL each with pre‐warmed Hank's Balanced Salt Solution (HBSS) buffer. A 0.5 mL aliquot of uptake buffer [HBSS plus 10 mM 4‐(2‐hydroxyethyl)‐1‐piperazineethanesulfonic acid (HEPES), pH 7.4], containing the radiolabelled prototypical substrate and mannitol, was then incubated for various times up to 60 min to determine the optimal incubation time for subsequent experiments (i.e. time of sampling during linear uptake conditions). At the designated times, 1.0 mL of ice‐cold HBSS buffer was added to stop uptake after which the cells were rinsed three times with 1.0 mL with ice‐cold HBSS. Hyamine hydroxide (0.33 mL) was then added to each well to lyse the cells. The cells were transferred into a scintillation vial and mixed with 6.0 mL of cytosine scintillation cocktail. Radioactivity of the solubilized cells was determined with a dual‐channel liquid scintillation counter (Beckman LS 6000; Beckman Coulter Inc., Fullerton, CA) and the protein quantified by a bicinchoninic acid protein assay kit (Pierce Biotechnology; Rockford, IL).
Mock and transfected cells (250 000 cells/well) were seeded onto BioCoat poly‐D‐lysine 24 well plates (Corning Inc.) and cultured for 2 days as described previously for the other OATPs. […] Radioactivity and protein measurements were then performed as described previously.

Data set [4] in a line: In vivo mass balance study (urinary and faecal recovery) in mice. Conditions: mouse, in vivo; for dose excreted at 24 h: total radioactivity. Here is the method: Each mouse was then placed in a metabolic cage for 24 h, along with food and water, and the urine and faeces were collected. The metabolic cage was washed several times, after which 100 μL aliquots of diluted urine and faeces was placed in separate vials. Radioactivity measurements were then performed as described previously. All animal procedures were approved by the Institutional Animal Care and Use Committee at the University of Michigan, Ann Arbor.

Data set [5] concerns the target T3, OAT1 (Homo sapiens, UniProt Q4U2R8).
T3 construct: host or cells: HEK293
T3 sequence (Q4U2R8 1-563): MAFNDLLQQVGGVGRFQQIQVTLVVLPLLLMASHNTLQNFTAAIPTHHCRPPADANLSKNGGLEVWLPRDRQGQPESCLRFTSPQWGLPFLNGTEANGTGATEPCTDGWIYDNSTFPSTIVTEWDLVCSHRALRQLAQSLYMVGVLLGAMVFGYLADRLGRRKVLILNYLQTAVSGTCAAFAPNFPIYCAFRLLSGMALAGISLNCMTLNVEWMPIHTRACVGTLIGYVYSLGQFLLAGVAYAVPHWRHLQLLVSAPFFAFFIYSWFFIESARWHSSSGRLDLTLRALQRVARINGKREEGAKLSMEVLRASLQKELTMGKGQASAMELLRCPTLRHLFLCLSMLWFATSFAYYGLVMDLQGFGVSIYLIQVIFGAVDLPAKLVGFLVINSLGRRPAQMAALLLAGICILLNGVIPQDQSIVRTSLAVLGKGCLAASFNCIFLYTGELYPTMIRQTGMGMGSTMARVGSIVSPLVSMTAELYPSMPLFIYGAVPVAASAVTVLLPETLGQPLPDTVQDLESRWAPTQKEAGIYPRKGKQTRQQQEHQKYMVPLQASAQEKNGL
In words: Inhibition of prototypical substrate (PAH) uptake by TCMCB07 in HEK293/OAT1 cells. Conditions: substrate 1.0 μM [14C]PAH, 5.0 min, up to 1000 μM TCMCB07. Format: in vitro ADME.
Protocol: as §2

Bridge positions count the residues as written; N and C are the ends. Square brackets hold non-standard residues; d marks the D form. Peptide text beside a SMILES is read from it. d2Nal = N[C@H](Cc1ccc2ccccc2c1)C(=O)O; Nle = CCCC[C@H](N)C(=O)O

What is called IC50 is the concentration that inhibits the measured activity by half. Low readings indicate greater potency, high ones weaker potency. As for `CCCC[C@H](NC(C)=O)C(=O)N[C@H]1CC(=O)NCCCC[C@@H](C(=O)N[C@@H](C(=O)N2CCC[C@@H]2C(N)=O)C(C)C)NC(=O)[C@H](Cc2c[nH]c3ccccc23)NC(=O)[C@H](CCCN=C(N)N)NC(=O)[C@@H](Cc2ccc3ccccc3c2)NC(=O)[C@@H]2CCCN2C1=O` [TCMCB07, Ac‐Nle‐c[Asp‐Pro‐dNal2′‐Arg‐Trp‐Lys]‐dVal‐dPro‐NH2] (Ac-[Nle]DP[d2Nal]RWK[dV][dP]-NH2; lactam 2-7), the IC50 in data set [1] was 8.7 ± 0.4 µM; in data set [2] it was 20.7 ± 2.1 µM; in data set [3], 24 ± 2.8 µM; in data set [5], “could not be determined”. The molecule also yielded an oral absorption in data set [4] of 24.2%. Moreover, the dose excreted at 24 h in data set [4] (iv, 23.3 mg/kg, % Urinary recovery, intravenous TCMCB07) turned out to be 14%; in data set [4] (iv, faecal (biliary) share of total recovery (faeces/(urine + faeces))), 76%; in data set [4] (po, 23.3 mg/kg, % Urinary recovery, oral TCMCB07), 5%; in data set [4] (po, faecal share of total recovery (faeces/(urine + faeces))) it was 95%.
